Measurements from patent US20230085307A1, “PYRIDAZINONE COMPOUND AND HERBICIDE” (NISSAN CHEMICAL CORPORATION, priority 2019, published 2023).

Assays:
[1] = test system: chickweed; assay: Test Example 4: herbicidal effect by soil treatment (Table 19, symbol P); format: in vivo, common chickweed (Stellaria media); conditions: amount of applied herbicide 320 g/ha
In short: (§1)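 Emulsion of test compound, water-diluted to predetermined amount, sprayed on soil after sowing (seed depth ~1.5 cm, sterilized diluvial soil). Greenhouse, 25–30° C. Effect graded at three weeks post-spray.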

[2] = test system: blackgrass; assay: Test Example 4: herbicidal effect by soil treatment (Table 19, symbol J); format: in vivo, blackgrass (Alopecurus myosuroides); conditions: amount of applied herbicide 320 g/ha
In short: as §1

[3] = test system: persian speedwell; assay: Test Example 4: herbicidal effect by soil treatment (Table 19, symbol R); format: in vivo, Persian speedwell (Veronica persica); conditions: amount of applied herbicide 320 g/ha
In short: as §1

[4] = test system: Chinese sprangletop; assay: Test Example 3: herbicidal effect by foliage application, Wagner pot (Table 18, symbol D); format: in vivo, chinese sprangletop (Leptochloa chinensis); conditions: amount of applied herbicide 320 g/ha
In short: (§2)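 Plants were sown in alluvial soil held under 0.1–0.5 cm standing water and grown 14 days in a greenhouse at 25–30 °C. An emulsifiable formulation, water-diluted to the set dose, was then sprayed onto the foliage, and effects were scored three weeks later using previously defined criteria.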

[5] = test system: Italian ryegrass; assay: Test Example 5: herbicidal effect by foliage application, plastic box (Table 20, symbol K); format: in vivo, Italian ryegrass (Lolium multiflorum); conditions: foliage application, evaluated three weeks after application
In short: (§3)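 Post-emergence foliar test in sterilized diluvial soil. Compound applied as water-diluted emulsion at a predetermined rate to 14-day-old plants; evaluation at three weeks.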

[6] = test system: blackgrass; assay: Test Example 5: herbicidal effect by foliage application, plastic box (Table 20, symbol J); format: in vivo, blackgrass (Alopecurus myosuroides); conditions: foliage application, evaluated three weeks after application
In short: as §3

[7] = test system: barnyard grass; assay: Test Example 4: herbicidal effect by soil treatment (Table 19, symbol H); format: in vivo, barnyard grass (Echinochloa crus-galli); conditions: amount of applied herbicide 320 g/ha
In short: as §1

[8] = test system: green foxtail; assay: Test Example 4: herbicidal effect by soil treatment (Table 19, symbol G); format: in vivo, green foxtail (Setaria viridis); conditions: amount of applied herbicide 320 g/ha
In short: as §1

[9] = test system: barnyard grass; assay: Test Example 5: herbicidal effect by foliage application, plastic box (Table 20, symbol H); format: in vivo, barnyard grass (Echinochloa crus-galli); conditions: foliage application, evaluated three weeks after application
In short: as §3

[10] = test system: velvetleaf; assay: Test Example 4: herbicidal effect by soil treatment (Table 19, symbol M); format: in vivo, velvetleaf (Abutilon theophrasti); conditions: amount of applied herbicide 320 g/ha
In short: as §1

[11] = test system: southern crabgrass; assay: Test Example 4: herbicidal effect by soil treatment (Table 19, symbol F); format: in vivo, southern crabgrass (Digitaria ciliaris); conditions: amount of applied herbicide 320 g/ha
In short: as §1

[12] = test system: chickweed; assay: Test Example 5: herbicidal effect by foliage application, plastic box (Table 20, symbol P); format: in vivo, common chickweed (Stellaria media); conditions: foliage application, evaluated three weeks after application
In short: as §3

[13] = test system: wild oat; assay: Test Example 4: herbicidal effect by soil treatment (Table 19, symbol I); format: in vivo, wild oat (Avena fatua); conditions: amount of applied herbicide 320 g/ha
In short: as §1

[14] = test system: rice flat sedge; assay: Test Example 3: herbicidal effect by foliage application, Wagner pot (Table 18, symbol E); format: in vivo, rice flat sedge (Cyperus iria); conditions: amount of applied herbicide 320 g/ha
In short: as §2

[15] = test system: redroot pigweed; assay: Test Example 4: herbicidal effect by soil treatment (Table 19, symbol N); format: in vivo, redroot pigweed (Amaranthus retroflexus); conditions: amount of applied herbicide 320 g/ha
In short: as §1

[16] = test system: velvetleaf; assay: Test Example 5: herbicidal effect by foliage application, plastic box (Table 20, symbol M); format: in vivo, velvetleaf (Abutilon theophrasti); conditions: foliage application, evaluated three weeks after application
In short: as §3

[17] = test system: wild oat; assay: Test Example 5: herbicidal effect by foliage application, plastic box (Table 20, symbol I); format: in vivo, wild oat (Avena fatua); conditions: foliage application, evaluated three weeks after application
In short: as §3

[18] = test system: southern crabgrass; assay: Test Example 5: herbicidal effect by foliage application, plastic box (Table 20, symbol F); format: in vivo, southern crabgrass (Digitaria ciliaris); conditions: foliage application, evaluated three weeks after application
In short: as §3

[19] = test system: oval-leafed pondweed; assay: Test Example 1: herbicidal activity, application before weed generation under submerged conditions (Table 16, symbol C); format: in vivo, oval-leafed pondweed (Monochoria vaginalis); conditions: 320 g/ha applied herbicide
In short: (§4)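 Submerged Wagner pots (alluvial soil, 4 cm water) sown with weed seeds and planted with 2.5-leaf rice seedlings; emulsifiable concentrate diluted in water applied to water surface on sowing day. Held in greenhouse at 25-30 °C; injury scored 0-5 by herbicidal rate after three weeks.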

[20] = test system: Japanese bulrush; assay: Test Example 1: herbicidal activity, application before weed generation under submerged conditions (Table 16, symbol B); format: in vivo, Japanese bulrush (Schoenoplectus juncoides); conditions: 320 g/ha applied herbicide
In short: as §4

[21] = test system: windgrass; assay: Test Example 4: herbicidal effect by soil treatment (Table 19, symbol L); format: in vivo, windgrass (Apera spica-venti); conditions: amount of applied herbicide 320 g/ha
In short: as §1

[22] = test system: barnyard grass; assay: Test Example 3: herbicidal effect by foliage application, Wagner pot (Table 18, symbol H); format: in vivo, barnyard grass (Echinochloa crus-galli); conditions: amount of applied herbicide 320 g/ha
In short: as §2

[23] = test system: late watergrass; assay: Test Example 1: herbicidal activity, application before weed generation under submerged conditions (Table 16, symbol A); format: in vivo, late watergrass (Echinochloa oryzicola); conditions: 320 g/ha applied herbicide
In short: as §4

[24] = test system: lambsquarters; assay: Test Example 4: herbicidal effect by soil treatment (Table 19, symbol O); format: in vivo, lambsquarters (Chenopodium album); conditions: amount of applied herbicide 320 g/ha
In short: as §1

[25] = test system: lambsquarters; assay: Test Example 5: herbicidal effect by foliage application, plastic box (Table 20, symbol O); format: in vivo, lambsquarters (Chenopodium album); conditions: foliage application, evaluated three weeks after application
In short: as §3

[26] = test system: green foxtail; assay: Test Example 5: herbicidal effect by foliage application, plastic box (Table 20, symbol G); format: in vivo, green foxtail (Setaria viridis); conditions: foliage application, evaluated three weeks after application
In short: as §3

[27] = test system: persian speedwell; assay: Test Example 5: herbicidal effect by foliage application, plastic box (Table 20, symbol R); format: in vivo, Persian speedwell (Veronica persica); conditions: foliage application, evaluated three weeks after application
In short: as §3

[28] = test system: Italian ryegrass; assay: Test Example 4: herbicidal effect by soil treatment (Table 19, symbol K); format: in vivo, Italian ryegrass (Lolium multiflorum); conditions: amount of applied herbicide 320 g/ha
In short: as §1

[29] = test system: redroot pigweed; assay: Test Example 5: herbicidal effect by foliage application, plastic box (Table 20, symbol N); format: in vivo, redroot pigweed (Amaranthus retroflexus); conditions: foliage application, evaluated three weeks after application
In short: as §3

Cc1nn(C)c(=O)c(-c2c(-c3ccc(C(C)(C)C)cc3)sc3ccc(F)cc23)c1O [2-208]
P: chickweed, herbicidal effect rating [1]: 0 (Herbicidal rate of 5% or less (almost no effect))
J: blackgrass, herbicidal effect rating [2]: 0 (Herbicidal rate of 5% or less (almost no effect))
R: persian speedwell, herbicidal effect rating [3]: 0 (Herbicidal rate of 5% or less (almost no effect))
herbicidal effect on D: Chinese sprangletop [4]: 5 (Herbicidal rate of 90% or more (almost completely withered))
herbicidal effect on K: Italian ryegrass (criteria 0-5) ([5]; 320 g/ha): 0 (Herbicidal rate of 5% or less (almost no effect))
herbicidal effect on J: blackgrass (criteria 0-5) ([6]; 320 g/ha): 0 (Herbicidal rate of 5% or less (almost no effect))
H: barnyard grass, herbicidal effect rating [7]: 0 (Herbicidal rate of 5% or less (almost no effect))
G: green foxtail, herbicidal effect rating [8]: 0 (Herbicidal rate of 5% or less (almost no effect))
herbicidal effect on H: barnyard grass (criteria 0-5) ([9]; 320 g/ha): 5 (Herbicidal rate of 90% or more (almost completely withered))
M: velvetleaf, herbicidal effect rating [10]: 1 (Herbicidal rate of 5% or more and less than 20%)
F: southern crabgrass, herbicidal effect rating [11]: 3 (Herbicidal rate of 40% or more and less than 70%)
herbicidal effect on P: chickweed (criteria 0-5) ([12]; 320 g/ha): 5 (Herbicidal rate of 90% or more (almost completely withered))
I: wild oat, herbicidal effect rating [13]: 0 (Herbicidal rate of 5% or less (almost no effect))
herbicidal effect on E: rice flat sedge [14]: 5 (Herbicidal rate of 90% or more (almost completely withered))
N: redroot pigweed, herbicidal effect rating [15]: 0 (Herbicidal rate of 5% or less (almost no effect))
herbicidal effect on M: velvetleaf (criteria 0-5) ([16]; 320 g/ha): 2 (Herbicidal rate of 20% or more and less than 40%)
herbicidal effect on I: wild oat (criteria 0-5) ([17]; 320 g/ha): 0 (Herbicidal rate of 5% or less (almost no effect))
herbicidal effect on F: southern crabgrass (criteria 0-5) ([18]; 320 g/ha): 3 (Herbicidal rate of 40% or more and less than 70%)
Herbicidal effect on C: oval-leafed pondweed (grade 0-5) [19]: 0 (Herbicidal rate of 5% or less (almost no effect))
Herbicidal effect on B: Japanese bulrush (grade 0-5) [20]: 2 (Herbicidal rate of 20% or more and less than 40%)
L: windgrass, herbicidal effect rating [21]: 0 (Herbicidal rate of 5% or less (almost no effect))
herbicidal effect on H: barnyard grass [22]: 5 (Herbicidal rate of 90% or more (almost completely withered))
Herbicidal effect on A: late watergrass (grade 0-5) [23]: 0 (Herbicidal rate of 5% or less (almost no effect))
O: lambsquarters, herbicidal effect rating [24]: 2 (Herbicidal rate of 20% or more and less than 40%)
herbicidal effect on O: lambsquarters (criteria 0-5) ([25]; 320 g/ha): 0 (Herbicidal rate of 5% or less (almost no effect))
herbicidal effect on G: green foxtail (criteria 0-5) ([26]; 320 g/ha): 2 (Herbicidal rate of 20% or more and less than 40%)
herbicidal effect on R: persian speedwell (criteria 0-5) ([27]; 320 g/ha): 5 (Herbicidal rate of 90% or more (almost completely withered))
K: Italian ryegrass, herbicidal effect rating [28]: 0 (Herbicidal rate of 5% or less (almost no effect))
herbicidal effect on N: redroot pigweed (criteria 0-5) ([29]; 320 g/ha): 3 (Herbicidal rate of 40% or more and less than 70%)

Cc1nn(C)c(=O)c(-c2c(-c3ccc(OC(F)F)cc3)sc3ccc(F)cc23)c1OS(=O)(=O)N(C)C [2-310]
herbicidal effect on P: chickweed [1]: 3 (Herbicidal rate of 40% or more and less than 70%)
herbicidal effect on J: blackgrass [2]: 0 (Herbicidal rate of 5% or less (almost no effect))
herbicidal effect on R: persian speedwell [3]: 4 (Herbicidal rate of 70% or more and less than 90%)
herbicidal effect on D: Chinese sprangletop [4]: 4 (Herbicidal rate of 70% or more and less than 90%)
K: Italian ryegrass, herbicidal effect (criteria 0-5) ([5]; AAH 320 g/ha): 0 (Herbicidal rate of 5% or less (almost no effect))
J: blackgrass, herbicidal effect (criteria 0-5) ([6]; AAH 320 g/ha): 0 (Herbicidal rate of 5% or less (almost no effect))
herbicidal effect on H: barnyard grass [7]: 0 (Herbicidal rate of 5% or less (almost no effect))
herbicidal effect on G: green foxtail [8]: 0 (Herbicidal rate of 5% or less (almost no effect))
H: barnyard grass, herbicidal effect (criteria 0-5) ([9]; AAH 320 g/ha): 5 (Herbicidal rate of 90% or more (almost completely withered))
herbicidal effect on M: velvetleaf [10]: 0 (Herbicidal rate of 5% or less (almost no effect))
herbicidal effect on F: southern crabgrass [11]: 0 (Herbicidal rate of 5% or less (almost no effect))
P: chickweed, herbicidal effect (criteria 0-5) ([12]; AAH 320 g/ha): 5 (Herbicidal rate of 90% or more (almost completely withered))
herbicidal effect on I: wild oat [13]: 0 (Herbicidal rate of 5% or less (almost no effect))
herbicidal effect on E: rice flat sedge [14]: 3 (Herbicidal rate of 40% or more and less than 70%)
herbicidal effect on N: redroot pigweed [15]: 0 (Herbicidal rate of 5% or less (almost no effect))
M: velvetleaf, herbicidal effect (criteria 0-5) ([16]; AAH 320 g/ha): 5 (Herbicidal rate of 90% or more (almost completely withered))
I: wild oat, herbicidal effect (criteria 0-5) ([17]; AAH 320 g/ha): 0 (Herbicidal rate of 5% or less (almost no effect))
F: southern crabgrass, herbicidal effect (criteria 0-5) ([18]; AAH 320 g/ha): 0 (Herbicidal rate of 5% or less (almost no effect))
Herbicidal effect on C: oval-leafed pondweed (grade 0-5) [19]: 0 (Herbicidal rate of 5% or less (almost no effect))
Herbicidal effect on B: Japanese bulrush (grade 0-5) [20]: 2 (Herbicidal rate of 20% or more and less than 40%)
herbicidal effect on L: windgrass [21]: 0 (Herbicidal rate of 5% or less (almost no effect))
herbicidal effect on H: barnyard grass [22]: 5 (Herbicidal rate of 90% or more (almost completely withered))
Herbicidal effect on A: late watergrass (grade 0-5) [23]: 0 (Herbicidal rate of 5% or less (almost no effect))
herbicidal effect on O: lambsquarters [24]: 0 (Herbicidal rate of 5% or less (almost no effect))
O: lambsquarters, herbicidal effect (criteria 0-5) ([25]; AAH 320 g/ha): 5 (Herbicidal rate of 90% or more (almost completely withered))
G: green foxtail, herbicidal effect (criteria 0-5) ([26]; AAH 320 g/ha): 5 (Herbicidal rate of 90% or more (almost completely withered))
R: persian speedwell, herbicidal effect (criteria 0-5) ([27]; AAH 320 g/ha): 5 (Herbicidal rate of 90% or more (almost completely withered))
herbicidal effect on K: Italian ryegrass [28]: 0 (Herbicidal rate of 5% or less (almost no effect))
N: redroot pigweed, herbicidal effect (criteria 0-5) ([29]; AAH 320 g/ha): 5 (Herbicidal rate of 90% or more (almost completely withered))
